Read-outs that look alike come from different tables or passages of the source.
Columns and labels:
[1] = test system: Puccinia triticina; assay: Wheat brown rust (PUCCRT), disease control on wheat seedlings; type: in vivo; conditions: high volume application at 100 ppm
Experimental: Technical grades of materials were dissolved in acetone, which were then mixed with nine volumes of water containing 110 ppm Triton X-100. The fungicide solutions were applied onto wheat seedlings using an automated booth sprayer to run-off. All sprayed plants were allowed to air dry prior to further handling. All fungicides were evaluated using the aforementioned method for their activity vs. all target diseases, unless stated otherwise. Wheat leaf blotch and brown rust activity were also evaluated using track spray applications, in which case the fungicides were formulated as EC formulations, containing 0.1% Trycol 5941 in the spray solutions. Wheat plants (variety Yuma) were grown from seed in a greenhouse in 50% mineral soil/50% soil-less Metro mix until the first leaf was fully emerged, with 7-10 seedlings per pot. These plants were inoculated with an aqueous spore suspension of Puccinia triticina either prior to or after fungicide treatments. After inoculation the plants were kept in a dark dew room at 22° C. with 100% relative humidity overnight to permit spores to germinate and infect the leaf. The plants were then transferred to a greenhouse set at 24° C. for disease to develop. Fungicide formulation, application and disease assessment followed the procedures as described in the Example A.

[2] = test system: Zymoseptoria tritici; assay: Leaf blotch of wheat (SEPTTR), disease control on wheat seedlings; type: in vivo; conditions: high volume application at 100 ppm
Experimental: Technical grades of materials were dissolved in acetone, which were then mixed with nine volumes of water containing 110 ppm Triton X-100. The fungicide solutions were applied onto wheat seedlings using an automated booth sprayer to run-off. All sprayed plants were allowed to air dry prior to further handling. All fungicides were evaluated using the aforementioned method for their activity vs. all target diseases, unless stated otherwise. Wheat leaf blotch and brown rust activity were also evaluated using track spray applications, in which case the fungicides were formulated as EC formulations, containing 0.1% Trycol 5941 in the spray solutions. Wheat plants (variety Yuma) were grown from seed in a greenhouse in 50% mineral soil/50% soil-less Metro mix until the first leaf was fully emerged, with 7-10 seedlings per pot. These plants were inoculated with an aqueous spore suspension of Zymoseptoria tritici either prior to or after fungicide treatments. After inoculation the plants were kept in 100% relative humidity (one day in a dark dew chamber followed by two to three days in a lighted dew chamber at 20° C.) to permit spores to germinate and infect the leaf. The plants were then transferred to a greenhouse set at 20° C. for disease to develop. When disease symptoms were fully expressed on the 1st leaves of untreated plants, infection levels were assessed on a scale of 0 to 100 percent disease severity. Percent disease control was calculated using the ratio of disease severity on treated plants relative to untreated plants.

[3] = 24 h, 1 Day Protectant, read-out: PUCCRT disease control, 1DP, HV activity
[4] = 72 h, 3 Day Curative, read-out: PUCCRT disease control, 3DC, HV activity
[5] = 24 h, 1 Day Protectant, read-out: SEPTTR disease control, 1DP, HV activity
[6] = 72 h, 3 Day Curative, read-out: SEPTTR disease control, 3DC, HV activity

Row | Structure (SMILES) | pest or weed control at 100 ppm [1, 3] [%] | pest or weed control at 100 ppm [1, 4] [%] | pest or weed control at 100 ppm [2, 5] [%] | pest or weed control at 100 ppm [2, 6] [%]
1 | COc1ccnc(C(=O)N[C@H](C(=O)O[C@@H](C)[C@H](c2ccc(F)cc2C)C(C)C)C(C)C)c1O [Compound 318] | > 80 | > 80 | < 80 | < 80
2 | CC[C@H](C)[C@H](NC(=O)c1nccc(OC)c1O)C(=O)O[C@@H](C)[C@H](c1ccc(F)cc1C)C(C)C [Compound 319] | < 80 | < 80 | < 80 | < 80
3 | COc1ccnc(C(=O)N[C@@H](CC(C)C)C(=O)O[C@@H](C)[C@H](c2ccc(F)cc2C)C(C)C)c1O [Compound 320] | < 80 | < 80 | < 80 | < 80
4 | COc1ccnc(C(=O)N[C@@H](C)C(=O)O[C@@H](C)[C@H](c2cc(C)ccc2C)C(C)C)c1O [Compound 321] | > 80 | > 80 | < 80 | < 80
5 | COc1ccnc(C(=O)N[C@@H](C)C(=O)O[C@@H](C)[C@H](c2cccc(F)c2C)C(C)C)c1O [Compound 322] | > 80 | > 80 | < 80 | < 80
6 | COc1ccnc(C(=O)N[C@@H](C)C(=O)O[C@@H](C)[C@H](c2ccccc2F)C(C)C)c1O [Compound 323] | > 80 | > 80 | < 80 | > 80
7 | COc1ccnc(C(=O)N[C@@H](C)C(=O)O[C@@H](C)[C@H](c2cc(F)ccc2C)C(C)C)c1O [Compound 324] | > 80 | > 80 | < 80 | < 80
8 | COc1ccnc(C(=O)N[C@@H](C)C(=O)O[C@@H](C)[C@H](c2ccc(C)cc2C)C(C)C)c1O [Compound 325] | > 80 | > 80 | > 80 | < 80
9 | COc1ccnc(C(=O)N[C@@H](C)C(=O)O[C@@H](C)[C@H](c2cccc(C)c2C)C(C)C)c1O [Compound 326] | > 80 | > 80 | < 80 | > 80
10 | COc1ccnc(C(=O)N[C@@H](C)C(=O)O[C@@H](C)[C@H](c2ccccc2C)C(C)C)c1O [Compound 327] | > 80 | > 80 | < 80 | > 80
11 | COc1ccnc(C(=O)N[C@@H](C)C(=O)O[C@@H](C)[C@H](c2ccc(F)cc2F)C(C)C)c1O [Compound 328] | > 80 | > 80 | > 80 | > 80
12 | COc1ccnc(C(=O)N[C@@H](C)C(=O)O[C@@H](C)[C@H](c2ccc(C)cc2F)C(C)C)c1O [Compound 329] | > 80 | > 80 | < 80 | < 80
13 | COc1ccnc(C(=O)N[C@@H](C)C(=O)O[C@@H](C)[C@H](c2ccc(Cl)cc2Cl)C(C)C)c1O [Compound 330] | > 80 | > 80 | < 80 | < 80
14 | COc1ccnc(C(=O)N[C@@H](C)C(=O)O[C@@H](C)[C@@H](c2ccc(F)cc2F)C(C)C)c1O [Compound 331] | < 80 | < 80 | < 80 | < 80
15 | COc1ccnc(C(=O)N[C@@H](C)C(=O)O[C@@H](C)[C@@H](c2ccc(C)cc2F)C(C)C)c1O [Compound 332] | < 80 | < 80 | < 80 | < 80

— US20180186742A1, “PICOLINAMIDES AS FUNGICIDES” (Dow AgroSciences LLC, priority 2017, published 2018)
